# Results published in article PMC4988499, “Pinpointing a Mechanistic Switch Between Ketoreduction and “Ene” Reduction in Short‐Chain Dehydrogenases/Reductases” (Angewandte Chemie (Weinheim an Der Bergstrasse, Germany), 2016).
# How the values were obtained:
# [1] = molecular target: T1, IPR (isopiperitenone reductase) (Mentha x piperita, UniProt Q6WAU1); experiment: X-ray crystal structure; assay type: binding
# T1 construct: recombinant; NADP+ scavenged from host cells; catalytic Glu238
# [2] = molecular target: T2, MNMR ((−)‐menthone:(+)‐neomenthol reductase) (Mentha x piperita, UniProt Q06ZW2); experiment: X-ray crystal structure (soaking); assay type: binding; details: coenzyme site
# T2 construct: recombinant; catalytic Tyr244
# T2 sequence (Q06ZW2 entry or part of it): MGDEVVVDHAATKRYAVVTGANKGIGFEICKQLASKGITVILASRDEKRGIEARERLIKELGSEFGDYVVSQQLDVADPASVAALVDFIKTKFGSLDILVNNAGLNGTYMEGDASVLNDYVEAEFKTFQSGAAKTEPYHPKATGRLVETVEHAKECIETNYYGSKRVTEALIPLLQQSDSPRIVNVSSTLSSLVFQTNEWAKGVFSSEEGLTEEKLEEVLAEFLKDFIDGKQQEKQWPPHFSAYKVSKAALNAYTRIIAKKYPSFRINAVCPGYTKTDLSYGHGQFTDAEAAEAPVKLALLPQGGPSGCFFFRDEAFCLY
# T1 sequence (Q6WAU1 whole entry): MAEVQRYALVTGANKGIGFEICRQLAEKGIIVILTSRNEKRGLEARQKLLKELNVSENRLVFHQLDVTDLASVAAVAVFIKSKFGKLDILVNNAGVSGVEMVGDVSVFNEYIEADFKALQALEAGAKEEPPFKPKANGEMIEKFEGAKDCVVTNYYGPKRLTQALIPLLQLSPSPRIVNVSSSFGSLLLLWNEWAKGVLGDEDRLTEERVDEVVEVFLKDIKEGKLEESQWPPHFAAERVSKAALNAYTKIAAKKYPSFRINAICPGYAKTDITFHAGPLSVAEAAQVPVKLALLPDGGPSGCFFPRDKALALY
Compound,X-ray crystal structure ([1]; scavenged from expression host),X-ray crystal structure (soaking) [2],"X-ray crystal structure ([1]; active site, non-substrate, with NADP+)"
NC(=O)c1ccc[n+]([C@@H]2O[C@H](COP(=O)(O)OP(=O)(O)OC[C@H]3O[C@@H](n4cnc5c(N)ncnc54)[C@H](OP(=O)(O)O)[C@@H]3O)[C@@H](O)[C@H]2O)c1 [NADP^+],clear density in the F0−Fc map for NADP^+,A coenzyme‐bound MNMR structure was obtained by soaking crystals with NADP^+,–
CC1=C(C=O)C(C)(C)CCC1 [β‐cyclocitral],–,–,The IPR–β‐cyclocitral co‐crystal structure shows the ligand binds in a non‐active conformation
